# Laboratory results: patent publication US9844540B2, “Combination therapies for treating cancer” (RedHill Biopharma Ltd., priority 2015, dated 2017)
# Values joined by “and” are separate entries in the source; they are usually repeats but may differ in a detail not shown here. Equal entries are not always repeated. Where two headings read alike, the source gives them in different places.
# Columns and labels:
# [1] = test system: MIA PaCa-2 pancreatic cancer cell line; test: In vitro cytotoxicity MTT assay, MIA PaCa-2; assay type: cell-based, human; settings: 3 days
# Method: (§1) The following experiment was performed to assess the potential of combination agents of the present disclosure for their capability of inhibiting the growth or proliferation of pancreatic cancer cells comprising contacting pancreatic cancer cells with effective amounts of the agents, alone and in combination, thereby inhibiting the growth or proliferation of the pancreatic cancer cells.
# (§2) The present study investigated whether clarithromycin+rifabutin+clofazimine (“Combo”) would be synergistic with [3-(4-chlorophenyl)-adamantane-1-carboxylic acid (pyridin-4-ylmethyl)amide] (“ABC2640”) against MIA PaCa-2, PANC-1, and Hs 766T pancreatic cancer cell lines. Hs 766T is a cell line derived from the lymph node metastasis of a person with pancreas carcinoma. MIA PaCa-2 is a cell line derived from the pancreas adenocarcinoma of a person who presented with abdominal pain for 6 months and a palpable upper abdominal mass. PANC-1 was cultured from a person with an adenocarcinoma in the head of the pancreas which invaded the duodenal wall.
# (§3) The MTT assay is commonly used to determine cytotoxicity of potential medicinal agents, since these types of materials are expected to stimulate or inhibit cell viability and growth. Briefly, 3,000 cells were plated/well—100 μl/well. After overnight, prior to the assay, 50 μl supernatant was removed from each well. Each drug was added at 4× of the final concentration (in 50 μl). Total volume of each well was 200 μl. 4 wells had been used as a control and contained no cells at all. The plate was developed after being incubated for 3 days at 37° C. 20 μl of Promega Substrate Cell Titer 96 Aqueous One Solution Reagent was added to each well, incubated at 37° C. and read OD at 490 nm. The MTT test is based on the enzymatic reduction of the tetrazolium salt MTT [3-(4,5-dimethylthiazol-2-yl)-2,5-diphenyl-tetrazoliumbromide^+++] in living, metabolically active cells but not in dead cells. The reaction is carried out in situ in multiwell plates, and the reaction product, a purple-colored formazan soluble in dimethylsulfoxide, is measured colorimetrically, using a multiwell plate reader.
# [2] = test system: Hs 766T pancreatic cancer cell line; test: In vitro cytotoxicity MTT assay, Hs 766T; assay type: cell-based, human; settings: 3 days
# Method: as §1, §2, §3
# [3] = test system: PANC-1 pancreatic cancer cell line; test: In vitro cytotoxicity MTT assay, PANC-1; assay type: cell-based, human; settings: 3 days
# Method: as §1, §2, §3
# [4] = test system: human tumor cell strain K562-WT
# Method: (§4) The human tumor cell strain K562-WT and the tumor cell strain F46-WT of the mouse (WT=wild type=sensitive to cytostatic treatment=no amplification of the MDR-gene) is treated over several weeks with staged increase in concentrations of adriamycin. […] The formation of resistance is based on the amplification of the MDR gene.
# [5] = test system: LPS-induced cytokine production; test: LPS-induced cytokine production in C57BL/6 mice; assay type: in vivo; settings: serum 2 hours after LPS; dosed once 1 hour before LPS; dexamethasone 5 mg/kg i.p., RHB-104 108 mg/kg p.o.
# Method: This study was performed to evaluate the effects of RHB-104 (as detailed above) dosed orally at 108 mg/kg on lipopolysaccharide (LPS)-induced cytokine production in mice. The LPS-induced cytokine production model in mice is commonly used to test the ability of compounds to suppress production of pro-inflammatory cytokines TNF and IL-6 in vivo.
# In this model LPS is injected into mice intraperitoneally (i.p.) or intravenously. Two hours after the LPS injection, concentrations of IL-6 and TNF reach peak levels in serum of the injected mice.
# 30 female C57BL/6 mice, 11 weeks old, were dosed once with RHB-104, then injected with LPS 1 hour later. 2 hours after LPS injection, mice were bled and serum was isolated. The concentration of cytokines in serum was measured. Dexamethasone administered at 5 mg/kg i.p. was used as positive control for suppression of the immune response. Dexamethasone suppresses production of pro-inflammatory cytokines TNF and IL-6 increases production of anti-inflammatory cytokine IL-10.
# Serum concentrations of IL-2, IL-4, IL-6, IL-10, IL-17, IFN-γ and TNF were measured using cytokine bead analysis (CBA) Th1/Th2/Th17 kit (Becton Dickinson). Concentrations of cytokines in serum between groups were compared using 2-tailed Student's t-test.
# [6] = mouse, in vivo
# Method: […]. […] ABC294640 could also be administered orally to mice at doses up to at least 100 mg/kg without noticeable toxicity.
# [7] = test system: mouse JC mammary adenocarcinoma cell line; test: Antitumor activity in syngeneic JC mammary adenocarcinoma model; assay type: in vivo, Balb/c mice
# Method: The antitumor activity of ABC294640 was evaluated using a syngeneic tumor model that uses the mouse JC mammary adenocarcinoma cell line growing subcutaneously in immunocompetent Balb/c mice (Lee et al., 2003, Oncol Res 14: 49). These cells express elevated levels of SK activity relative to non-transformed cells, as well as the multidrug resistance phenotype due to P-glycoprotein activity.
# Balb/c mice, 6-8 weeks old, were injected subcutaneously with 10^6 JC cells suspended in phosphate-buffered saline. ABC294640 was dissolved in PEG400 and administered to mice every-other day at a dose of 100 mg/kg. Body weights and tumor volumes were monitored daily. […] ABC294640 inhibited tumor growth relative to controls by 69%.
# [8] = test system: MCF-10A non-transformed human breast epithelial cells; test: Cytotoxicity, SRB assay, MCF-10A; assay type: cell-based; settings: 48 h, SRB binding assay, read-out: IC50 (concentration that inhibited proliferation by 50%)
# Method: (§5) To assess the biological efficacy of ABC294640 in intact cells, ABC294640 was evaluated for cytotoxicity using human cancer cell lines. These experiments followed methods that have been extensively used. Cell lines tested included MCF-7 human breast adenocarcinoma cells and MCF-10A non-transformed human breast epithelial cells. The indicated cell lines were treated with varying doses of ABC294640 for 48 h. Cell survival was then determined using the SRB binding assay (Skehan et al., 1990, J Natl Cancer Inst 82: 1107), and the concentration of ABC294640 that inhibited proliferation by 50% (the IC50) was calculated. […] ABC294640 is antiproliferative at sub-to-low-micromolar.
# physchem = assay type: physicochemical; settings: aqueous with cosolvent or surfactant or cyclodextrin
# [9] = test system: MCF-7 human breast adenocarcinoma cells; test: Cytotoxicity, SRB assay, MCF-7; assay type: cell-based; settings: MCF7, 48 h, read-out: IC50 (concentration that inhibited proliferation by 50%)
# Method: as §5
# [10] = test system: tumor cell strain F46-WT of the mouse; settings: for formation of resistance to adriamycin: 6 to 8 weeks
# Method: as §4
# The tumor cell strain F4-6-WT of the mouse (WT=wild type=sensitive to cytostatic treatment=no amplification of the MDR gene) is treated over several weeks with staged increases in concentration of adriamycin. […] The formation of resistance is based on the amplification of the MDR gene. The levels of β-actin MRNA are likewise analyzed as comparison. β-actin is used as an internal control for the RNA quantity.
# AH13r sarcoma cells = test: BVDU and chemotherapy-induced apoptosis in AH13r sarcoma cells; assay type: cell-based
# From the text: AH13r cells were subjected to increasing doses of the cytostatic mitomycin C (MMC). […] This inhibitory effect was maintained even after discontinuation of the cytostatic in the next cycle, in the so-called recovery phase. The cells without MMC and BVDU continued to grow without inhibition. […] The indication that the reduction in cell number is based on apoptosis, was detected by means of Hoechst 33258/propidium iodide (Hopi) double colouration.
# BN472 breast cancer = test: In vivo assay of WX-671 in the BN472 rat breast cancer model; parameters: species or system brown Norwegian rats; settings: WX-UK1 1 mg/kg i.p. daily, 30 days
# Method: The treatments started 72 h after tumor implantation and were repeated daily until the animals were sacrificed after 30 days. The control group (A) received 0.75 ml of the substance-free substance carrier solution consisting of 5% ethanol, 5% D-mannitol and 5% Tween 20 in water orally by gavage.
# Growth of the inoculated tumors was determined in the dimensions length and width twice weekly, using a slide gauge. After the animals had been sacrificed, the therapy end points, tumor weight, weights of the axillary and intraperitoneal lymph nodes and also the number of macroscopic lung metastases were determined.
# [11] = test system: rat pancreatic tumor model, CA20948; test: In vivo test of WX-671 in the pancreatic adenocarcinoma model CA20948; settings: 0.3 mg/kg by intraperitoneal injection; vehicle 30.7%
# Method: Groups of eighteen rats were inoculated with tumor by intraperitoneal injection of a tumor cell suspension, prepared from a solid tumor harvested from a donor rat.
# In this model the intraperitoneally grafted cells migrate to the pancreas to form a pancreatic tumor intimately associated with the pancreas. Within 3 weeks the tumor disseminates typically to the liver to form metastatic lesions which can be counted. Treatments at dose levels of 0.03, 0.3 and 3.0 mg/kg once daily were orally applied daily from day 3 onwards.
# The percentage of large liver foci was determined by dividing the number of large lesions by the number of total lesion detected on the livers.
# T24 (bladder) = test: Tumor cell line panel, sulforhodamine B, T24; assay type: cell-based; settings: Homo sapiens, 48 hours, mean ± sd
# Method: (§6) To examine the range of anticancer, the chemotherapeutic potency of ABC294640 towards a panel of varied human tumor cell lines representing several major tumor types were determined. […] [table]
# Hep-G2 (liver) = test: Tumor cell line panel, sulforhodamine B, Hep-G2; assay type: cell-based; settings: Homo sapiens, HepG2, 48 hours, mean ± sd
# Method: as §6
structure (smiles),measurement,setting,value
"CC[C@H]1OC(=O)[C@H](C)[C@@H](O[C@H]2C[C@@](C)(OC)[C@@H](O)[C@H](C)O2)[C@H](C)[C@@H](O[C@@H]2O[C@H](C)C[C@H](N(C)C)[C@H]2O)[C@](C)(OC)C[C@@H](C)C(=O)[C@H](C)[C@@H](O)[C@]1(C)O [clarithromycin, Clarithromycin]",Toxicity (%),[1]; 100 μM,0%
same,Toxicity (%),[2]; 100 μM,29%
same,Toxicity (%),[3]; 100 μM,7%
COc1cccc2c1C(=O)c1c(O)c3c(c(O)c1C2=O)C[C@@](O)(C(=O)CO)C[C@@H]3O[C@H]1C[C@H](N)[C@H](O)[C@H](C)O1 [adriamycin],toxic effect on non-resistant cells,"[4]; K562-WT, 20 ng/ml, treatment time 4 days",severely toxic effect
"C[C@@H]1C[C@H]2[C@@H]3CCC4=CC(=O)C=C[C@]4(C)[C@@]3(F)[C@@H](O)C[C@]2(C)[C@@]1(O)C(=O)CO [Dexamethasone, dexamethasone]",IL-6 (pg/mL) ± SD,[5],1259 ± 295 pg/mL
same,IL-10 (pg/mL) ± SD,[5],106 ± 66 pg/mL
same,TNF (pg/mL) ± SD,[5],35 ± 10 pg/mL
"O=C(NCc1ccncc1)C12CC3CC(C1)CC(c1ccc(Cl)cc1)(C3)C2 [ABC294640, 3-(4-chlorophenyl)-adamantane-1-carboxylic acid (pyridin-4-ylmethyl)amide]","dose with no immediate or delayed toxicity, acute toxicity","[6]; female, Swiss-Webster, ip",at least 50 mg/kg
same,oral dose without noticeable toxicity,[6]; po,at least 100 mg/kg
same,inhibition of tumor growth relative to controls,[7]; 100 mg/kg in PEG400 every-other day,69%
same,decrease of tumor growth versus control animals,"[7]; 100 mg/kg in PEG400 every-other day, day 16",> 70%
same,oral dose with antitumor activity (dose-response studies),[7]; orally administered,≥ 35 mg/kg
same,IC50,[8],21 µM
same,solubility,physchem,≥ 15000 µg/mL and 30000 µM to 40000 µM
same,IC50,[9],17 µM
"O=c1[nH]c(=O)n(C2CC(O)C(CO)O2)cc1/C=C/Br (centres unmarked) [BVDU, (E)-5-(2-bromovinyl)-2-deoxyuridine]",formation of resistance to adriamycin,"[4]; K562-WT, 0.5 or 1 μg/ml BVDU together with staged increasing adriamycin, 6 to 8 weeks",prevents the formation of resistance to adriamycin
same,concentration from which BVDU acts in a toxic manner,[4]; human,about 10 μg/ml
same,formation of resistance to adriamycin,"[10]; F4-6-WT, 1 μg/ml BVDU with adriamycin",prevented the formation of resistance to adriamycin
same,formation of resistance to adriamycin,"[10]; F46-WT, 0.5 or 1 μg/ml BVDU together with staged increasing adriamycin",prevents the formation of resistance to adriamycin
same,concentration from which BVDU acts in a toxic manner,[10]; mouse,about 8 μg/ml
same,"toxic effect, given alone",AH13r sarcoma cells,no toxic effect
same,cell growth in the recovery phase after discontinuation of the cytostatic,AH13r sarcoma cells; continued BVDU without MMC,greatly inhibited in their growth
"CC(C)/N=c1\cc2n(-c3ccc(Cl)cc3)c3ccccc3nc-2cc1Nc1ccc(Cl)cc1 [clofazimine, Clofazimine]",Toxicity (%),[1]; 5 μM,4%
same,Toxicity (%),[2]; 5 μM,62%
same,Toxicity (%),[3]; 5 μM,41%
"CO[C@H]1/C=C/O[C@@]2(C)Oc3c(C)c(O)c4c(c3C2=O)C2=NC3(CCN(CC(C)C)CC3)NC2=C(NC(=O)/C(C)=C\C=C\[C@H](C)[C@H](O)[C@@H](C)[C@@H](O)[C@@H](C)[C@H](OC(C)=O)[C@@H]1C)C4=O [rifabutin, Rifabutin]",Toxicity (%),[1]; 35 μM,8%
same,Toxicity (%),[2]; 70 μM,20%
same,Toxicity (%),[3]; 70 μM,0%
"CCOC(=O)N1CCN(C(=O)[C@H](Cc2cccc(C(=N)N)c2)NS(=O)(=O)c2c(C(C)C)cc(C(C)C)cc2C(C)C)CC1 [WX-UK1, Na-(2,4,6-triisopropylphenylsulfonyl)-3-amidino-(L)-phenylalanine-4-ethoxycarbonylpiperazide]",reduction of average tumor weights at the end of the treatment compared to the control,BN472 breast cancer,approx. 5%
same,percentage large mets (>2 mm liver lesions of total liver lesions),[11],13.4%
"O=C(NCc1ccncc1)C12CC3CC(C1)CC(c1ccc(Cl)cc1)(C3)C2 [Compound 62, 3-(4-Chloro-phenyl)-adamantane-1-carboxylic acid(pyridin-4-ylmethyl)-amide]",IC50,T24 (bladder),39.4 ± 7.4 µM
same,IC50,Hep-G2 (liver),6 ± 2.6 µM
CCOC(=O)N1CCN(C(=O)[C@H](Cc2cccc(C(=N)N)c2)NS(=O)(=O)c2c(C(C)C)cc(C(C)C)cc2C(C)C)CC1.Cl [UK-1],Toxicity (%),[1]; 5 μM,33%
same,Toxicity (%),[1]; 10 μM,0%
same,Toxicity (%),[1]; 20 μM,0%
same,Toxicity (%),[2]; 5 μM,35%
same,Toxicity (%),[2]; 10 μM,28%
same,Toxicity (%),[2]; 20 μM,19%
same,Toxicity (%),[3]; 5 μM,0%
same,Toxicity (%),[3]; 10 μM,0%
same,Toxicity (%),[3]; 20 μM,14%
"O=C(NCc1ccncc1)C12CC3CC(C1)CC(c1ccc(Cl)cc1)(C3)C2 [ABC640, 3-(4-chlorophenyl)-adamantane-1-carboxylic acid (pyridin-4-ylmethyl)amide]",Toxicity (%),[1]; 25 μM,11%
same,Toxicity (%),[1]; 50 μM,92%
same,Toxicity (%),[2]; 25 μM,17%
same,Toxicity (%),[2]; 50 μM,72%
same,Toxicity (%),[3]; 25 μM,0%
same,Toxicity (%),[3]; 50 μM,68%
